Tested on: Ba/F3 cells expressing the empty vector (GFP), CALR wild type (CALR wt-GFP) or CALR mutant (CALR del52-GFP)
Assay: Sensitivity of Ba/F3 cells to SAR302503 (CellTiter-Glo cell viability)
Assay type: cell-based, murine
Conditions: Ba/F3 CALR wild type vs CALR 52 base pair deletion mutant; 48 hours; dilution series, highest concentration 40 μM; 10 ng/ml interleukin-3; listed as JAK2 kinase inhibitor
Method: FIG. 7: The sensitivity of Ba/F3 cells to SAR302503. Ba/F3 cells expressing the empty vector (GFP), CALR wild type (CALR wt-GFP) or CALR mutant (CALR del52-GFP) were analyzed by defining cell viability after 48 hours in presence of […] SAR302503. For relative viability, relative luminescence units were normalized to the DMSO control. Error bars represent standard error of the mean.
The retrovirus was generated and cells were transduced as described before (Zuber et al, 2013). Briefly, PlatE cells (75% confluent in a 10 cm dish) were transfected with 20 μg of the respective viral vector using the Calcium Phosphate Transfection Kit (Sigma #CAPHOS). The medium was changed after 24 hours and viral supernatant was collected at 36, 40, 44 and 60 hours after transfection. […] The cells were analyzed for transduction efficiency by flow cytometry, 48 hours after the final transduction step. The GFP positive cells were sorted by FACS and the sorting efficiency was analyzed by flow cytometry.
To define the sensitivity to the inhibitor SAR302503 (Sanofi), Ba/F3 cells were plated in 96-well plates at 25000 cells per well in triplicates on a dilution series of SAR302503 (highest concentration 40 μM) and in presence of 10 ng/ml interleukin-3. After 48 hours cell viability was determined by the CellTiter-Glo® Luminescent Cell Viability Assay (Promega).

Cc1cnc(Nc2ccc(OCCN3CCCC3)cc2)nc1Nc1cccc(S(=O)(=O)NC(C)(C)C)c1 [SAR302503]
sensitivity of cells to the JAK2 kinase inhibitor SAR302503 (relative cell viability): suppressed equally
